The values that follow come from ChEMBL document CHEMBL5576052, “Design, synthesis, and biological evaluation of new bis-benzylisoquinoline-based analogues as potential neuromuscular blocking agents” (Bioorg Med Chem Lett, 2024).

Common to all, as to assay type: functional
Assay [1] has as its system Oryctolagus cuniculus. The assay is described as follows: Neuromuscular blocking in rabbit model of propofol-induced anesthesia assessed as onset time at 27.27 nmol/kg by train-of-four response method.
Assay [2] relates to Oryctolagus cuniculus. The assay is described as follows: Neuromuscular blocking in rabbit model of propofol-induced anesthesia assessed as maximal blockade at 27.27 nmol/kg by train-of-four response method relative to control.
The subject of assay [3] is Oryctolagus cuniculus. The assay is described as follows: Neuromuscular blocking in rabbit model of propofol-induced anesthesia assessed as duration of time for maximal blockade at 27.27 nmol/kg by train-of-four response method.
Assay [4] has as its system Oryctolagus cuniculus. The assay is described as follows: Neuromuscular blocking in rabbit model of propofol-induced anesthesia assessed as effective blocking time by measuring duration from administration to 25 percent recovery at 27.27 nmol/kg by train-of-four response method.
Assay [5] deals with Oryctolagus cuniculus. In words: Neuromuscular blocking in rabbit model of propofol-induced anesthesia assessed as time duration of 25 to 75 percent recovery indices at 27.27 nmol/kg by train-of-four response method.
For assay [6], the system named is Oryctolagus cuniculus. The assay is described as follows: Neuromuscular blocking in rabbit model of propofol-induced anesthesia assessed as time duration of 25 to 90 percent recovery indices at 27.27 nmol/kg by train-of-four response method.
In assay [7] the test system is Oryctolagus cuniculus. In words: Neuromuscular blocking in rabbit model of propofol-induced anesthesia assessed as onset time at 272.7 nmol/kg by train-of-four response method.
Assay [8] deals with Oryctolagus cuniculus. The assay is described as follows: Neuromuscular blocking in rabbit model of propofol-induced anesthesia assessed as maximal blockade at 272.7 nmol/kg by train-of-four response method relative to control.
Assay [9] relates to Oryctolagus cuniculus. In words: Neuromuscular blocking in rabbit model of propofol-induced anesthesia assessed as duration of time for maximal blockade at 272.7 nmol/kg by train-of-four response method.
In assay [10] the test system is Oryctolagus cuniculus. The assay is described as follows: Neuromuscular blocking in rabbit model of propofol-induced anesthesia assessed as effective blocking time by measuring duration from administration to 25 percent recovery at 272.7 nmol/kg by train-of-four response method.
In assay [11] the test system is Oryctolagus cuniculus. The assay is described as follows: Neuromuscular blocking in rabbit model of propofol-induced anesthesia assessed as time duration of 25 to 75 percent recovery indices at 272.7 nmol/kg by train-of-four response method.
Assay [12] concerns Oryctolagus cuniculus. In words: Neuromuscular blocking in rabbit model of propofol-induced anesthesia assessed as time duration of 25 to 90 percent recovery indices at 272.7 nmol/kg by train-of-four response method.
Assay [13] relates to Oryctolagus cuniculus. In words: Neuromuscular blocking in rabbit model of propofol-induced anesthesia assessed as time duration of 25 to 75 percent recovery indices at 0.06 mg/kg of inductive dose with continuous infusion of compound measured for 0.5 hrs by train-of-four response method.
Assay [14] concerns Oryctolagus cuniculus. In words: Neuromuscular blocking in rabbit model of propofol-induced anesthesia assessed as time duration of 75 to 90 percent recovery indices at 0.06 mg/kg of inductive dose with continuous infusion of compound measured for 0.5 hrs by train-of-four response method.
The test system of assay [15] is Oryctolagus cuniculus. The assay is described as follows: Neuromuscular blocking in rabbit model of propofol-induced anesthesia assessed as time duration of 25 to 90 percent recovery indices at 0.06 mg/kg of inductive dose with continuous infusion of compound measured for 0.5 hrs by train-of-four response method.
The subject of assay [16] is Oryctolagus cuniculus. In words: Neuromuscular blocking in rabbit model of propofol-induced anesthesia assessed as time duration of 25 to 75 percent recovery indices at 0.06 mg/kg of inductive dose with continuous infusion of compound measured for 1 hr by train-of-four response method.
Assay [17] has as its system Oryctolagus cuniculus. In words: Neuromuscular blocking in rabbit model of propofol-induced anesthesia assessed as time duration of 75 to 90 percent recovery indices at 0.06 mg/kg of inductive dose with continuous infusion of compound measured for 1 hr by train-of-four response method.
For assay [18], the system named is Oryctolagus cuniculus. The assay is described as follows: Neuromuscular blocking in rabbit model of propofol-induced anesthesia assessed as time duration of 25 to 90 percent recovery indices at 0.06 mg/kg of inductive dose with continuous infusion of compound measured for 1 hr by train-of-four response method.
Assay [19] has as its system Oryctolagus cuniculus. In words: Neuromuscular blocking in rabbit model of propofol-induced anesthesia assessed as time duration of 25 to 75 percent recovery indices at 0.06 mg/kg of inductive dose with continuous infusion of compound measured for 2 hrs by train-of-four response method.
For assay [20], the system named is Oryctolagus cuniculus. The assay is described as follows: Neuromuscular blocking in rabbit model of propofol-induced anesthesia assessed as time duration of 75 to 90 percent recovery indices at 0.06 mg/kg of inductive dose with continuous infusion of compound measured for 2 hrs by train-of-four response method.
Assay [21] deals with Oryctolagus cuniculus. The assay is described as follows: Neuromuscular blocking in rabbit model of propofol-induced anesthesia assessed as time duration of 25 to 90 percent recovery indices at 0.06 mg/kg of inductive dose with continuous infusion of compound measured for 2 hrs by train-of-four response method.
Assay [22] has as its system Oryctolagus cuniculus. In words: Neuromuscular blocking in rabbit model of propofol-induced anesthesia assessed as time duration of 25 to 75 percent recovery indices at 0.33 mg/kg of inductive dose with continuous infusion of compound measured for 0.5 hrs by train-of-four response method.
The test system of assay [23] is Oryctolagus cuniculus. The assay is described as follows: Neuromuscular blocking in rabbit model of propofol-induced anesthesia assessed as time duration of 75 to 90 percent recovery indices at 0.33 mg/kg of inductive dose with continuous infusion of compound measured for 0.5 hrs by train-of-four response method.
The test system of assay [24] is Oryctolagus cuniculus. The assay is described as follows: Neuromuscular blocking in rabbit model of propofol-induced anesthesia assessed as time duration of 25 to 90 percent recovery indices at 0.33 mg/kg of inductive dose with continuous infusion of compound measured for 0.5 hrs by train-of-four response method.

SMILES strings stand for the structures.

Regarding `COc1cc2c(cc1OC)[C@@H](Cc1cc(OC)c(OC)c(OC)c1)[N+](C)(CCCOC(=O)CC/C=C/CCC(=O)OCCC[N+]1(C)CCc3cc(OC)c(OC)cc3[C@H]1Cc1cc(OC)c(OC)c(OC)c1)CC2.[Cl-].[Cl-]` (stereo not given in full) [MIVACURIUM CHLORIDE], the Time came out at 1.58 min in the assay with Oryctolagus cuniculus [1]; 4.42 min in the assay with Oryctolagus cuniculus [3]; 7.92 min with Oryctolagus cuniculus [4]; 7.75 min in the assay with Oryctolagus cuniculus [5]; 11.42 min in the assay with Oryctolagus cuniculus [6]; 0.79 min in the assay with Oryctolagus cuniculus [7]. Also, the Time with Oryctolagus cuniculus [9] came to 15.79 min; with Oryctolagus cuniculus [10], 18.57 min; with Oryctolagus cuniculus [11], 6.54 min; with Oryctolagus cuniculus [12] it was 9.71 min; in the assay with Oryctolagus cuniculus [13] it was 8 min; in the assay on Oryctolagus cuniculus [14], 3.5 min. For the same compound, the Time turned out to be 11.5 min with Oryctolagus cuniculus [15]; 8.5 min in the assay with Oryctolagus cuniculus [16]; 3.29 min in the assay on Oryctolagus cuniculus [17]; 11.79 min in the assay on Oryctolagus cuniculus [18]; 4.92 min in the assay on Oryctolagus cuniculus [19]; 4.83 min in the assay on Oryctolagus cuniculus [20]. In addition, the Time with Oryctolagus cuniculus [21] amounted to 9 min. Also, the Emax at 0.02727 µmol/kg in the assay with Oryctolagus cuniculus [2] turned out to be 100%. Further, the Emax at 0.2727 µmol/kg with Oryctolagus cuniculus [8] amounted to 100%.

As for `COc1cc2c(cc1OC)[C@@H](Cc1cc(OC)c(OC)c(OC)c1)[N@@+](C)(CCCOC(=O)CC/C=C/CCC(=O)OCCC[N@+]1(C)CCc3cc(OC)c(OC)cc3[C@H]1Cc1cc(OC)c(OC)c(OC)c1)CC2.[Cl-].[Cl-]` (mixture of isomers), the Time with Oryctolagus cuniculus [1] amounted to 3.58 min; in the assay with Oryctolagus cuniculus [3], 1.92 min; with Oryctolagus cuniculus [5], 4.92 min; in the assay with Oryctolagus cuniculus [6], 8.92 min; in the assay with Oryctolagus cuniculus [7], 0.83 min; with Oryctolagus cuniculus [9], 21.42 min. For the same compound, the Time with Oryctolagus cuniculus [10] is on record as 24.5 min; with Oryctolagus cuniculus [11], 10.5 min; in the assay with Oryctolagus cuniculus [12], 13.42 min; in the assay on Oryctolagus cuniculus [13], 6.9 min; with Oryctolagus cuniculus [14] it was 4.2 min; in the assay with Oryctolagus cuniculus [15] it was 11.1 min. For the same compound, the values for the Time in the assay on Oryctolagus cuniculus [16], in the assay with Oryctolagus cuniculus [17] and in the assay on Oryctolagus cuniculus [18] were 7.08 min, 5.33 min and 12.42 min, respectively. Besides, the Emax at 0.02727 µmol/kg in the assay on Oryctolagus cuniculus [2] came out at 80%. In addition, the Emax at 0.2727 µmol/kg with Oryctolagus cuniculus [8] came to 100%.

With `COc1cc2c(cc1OC)[C@@H](Cc1cc(OC)c(OC)c(OC)c1)[N+](C)(CCCOC(=O)CCCCC(=O)OCCC[N+]1(C)CCc3cc(OC)c(OC)cc3[C@H]1Cc1cc(OC)c(OC)c(OC)c1)CC2.[Cl-].[Cl-]` (stereo not given in full), the Time in the assay with Oryctolagus cuniculus [1] is given as 2.75 min; in the assay on Oryctolagus cuniculus [3] it was 2 min; with Oryctolagus cuniculus [4] it was 5.17 min; in the assay with Oryctolagus cuniculus [5], 9.67 min; in the assay with Oryctolagus cuniculus [6], 11.67 min; in the assay with Oryctolagus cuniculus [7] it was 0.63 min. For the same compound, the Time with Oryctolagus cuniculus [9] was 35 min; in the assay with Oryctolagus cuniculus [10], 38 min; in the assay on Oryctolagus cuniculus [11], 6.38 min; in the assay on Oryctolagus cuniculus [12] it was 8.13 min. Also, the Emax at 0.02727 µmol/kg in the assay on Oryctolagus cuniculus [2] amounted to 100%. The Emax at 0.2727 µmol/kg in the assay on Oryctolagus cuniculus [8] was 100%.

On to `COc1cc2c(cc1OC)[C@@H](Cc1cc(OC)c(OC)c(OC)c1)[N@+](C)(CCCOC(=O)CC/C=C/CCC(=O)OCCC[N@+]1(C)CCc3cc(OC)c(OC)cc3[C@H]1Cc1cc(OC)c(OC)c(OC)c1)CC2.[Cl-].[Cl-]`, for which the Time in the assay with Oryctolagus cuniculus [1] turned out to be 1.88 min; in the assay with Oryctolagus cuniculus [3], 4.25 min; in the assay with Oryctolagus cuniculus [4], 5.58 min; with Oryctolagus cuniculus [5], 9.22 min; in the assay with Oryctolagus cuniculus [6] it was 15.08 min; with Oryctolagus cuniculus [7], 0.67 min. In addition, the Time in the assay with Oryctolagus cuniculus [9] is recorded as 14.67 min; in the assay with Oryctolagus cuniculus [10] it was 19.58 min; in the assay with Oryctolagus cuniculus [11], 11.25 min; in the assay on Oryctolagus cuniculus [12], 13.92 min; with Oryctolagus cuniculus [13], 7.13 min; with Oryctolagus cuniculus [14], 3.6 min. Moreover, the Time in the assay on Oryctolagus cuniculus [15] was determined as 10.73 min; in the assay on Oryctolagus cuniculus [16], 6.96 min; in the assay on Oryctolagus cuniculus [17], 2.67 min; in the assay on Oryctolagus cuniculus [18], 9.63 min; in the assay on Oryctolagus cuniculus [19], 4.58 min; in the assay with Oryctolagus cuniculus [20], 3.17 min. In the assay on Oryctolagus cuniculus [21], the Time was 7.75 min. The Emax at 0.02727 µmol/kg in the assay on Oryctolagus cuniculus [2] was found to be 100%. Further, the Emax at 0.2727 µmol/kg with Oryctolagus cuniculus [8] is 100%.

As to `COc1cc2c(cc1OC)[C@@H](Cc1cc(OC)c(OC)c(OC)c1)[N+](C)(CCC(=O)OC/C=C\COC(=O)CC[N+]1(C)CCc3cc(OC)c(OC)cc3[C@H]1Cc1cc(OC)c(OC)c(OC)c1)CC2.O=S(=O)([O-])c1ccccc1.O=S(=O)([O-])c1ccccc1` (stereo not given in full), the Time in the assay with Oryctolagus cuniculus [7] turned out to be 1.67 min; with Oryctolagus cuniculus [9], 8.25 min; in the assay on Oryctolagus cuniculus [10], 11.83 min; with Oryctolagus cuniculus [11] it was 7.5 min; in the assay on Oryctolagus cuniculus [12] it was 10.25 min; in the assay with Oryctolagus cuniculus [22] it was 8 min. Moreover, the figures for the Time in the assay with Oryctolagus cuniculus [23] and with Oryctolagus cuniculus [24] were 3.17 min and 11.17 min, respectively. Also, the Emax at 0.2727 µmol/kg in the assay with Oryctolagus cuniculus [8] stood at 100%.
